Test results taken from publication PMC9105976, “A Novel β-Hairpin Peptide Z-d14CFR Enhances Multidrug-Resistant Bacterial Clearance in a Murine Model of Mastitis” (International Journal of Molecular Sciences, 2022).
Values after ≈ are worked out from the molar mass of the structure shown. Where two headings read alike, the source gives them in different places. Positions of bridges follow the written chain, without caps; N, C: chain ends. Residues, ends and D or L forms follow the SMILES beside them.

What was measured:
[1] = tested on: Escherichia coli CAU 201920; assay: MIC/MBC, microdilution broth method; assay type: cell-based; conditions: for MBC: CAU201920, Escherichia coli CAU 201920 (MDR isolate), kills 99.9% bacteria, NA = no activity at 1 mg/mL, read-out: MBC; for MIC: Escherichia coli, CAU201920, 18 h, read-out: MIC
Procedure: (§1) The MIC of peptides against bacteria was carried out by the microdilution broth method. The bacterial culture (OD 600 = 0.6) was diluted in 10 mM PBS to 1 × 10^6 CFU/mL. The bacterial suspension (100 μL) was added to 96-well plates, and the same volume of peptides, ampicillin or gentamicin (concentrations ranging from 0.001 to 2 mg/mL) were then added to the same 96-well plates, respectively.

[2] = tested on: Staphylococcus haemolyticus CAU202078; assay: MIC/MBC, microdilution broth method; assay type: cell-based; conditions: for MBC: Staphylococcus haemolyticus CAU202078 (MDR isolate), kills 99.9% bacteria, NA = no activity at 1 mg/mL, read-out: MBC; for MIC: Staphylococcus haemolyticus, CAU202078, 18 h, read-out: MIC
Procedure: as §1

[3] = tested on: Staphylococcus aureus ATCC29213; assay: MIC/MBC, microdilution broth method; assay type: cell-based; conditions: for MBC: Staphylococcus aureus ATCC29213, kills 99.9% bacteria, NA = no activity at 1 mg/mL, read-out: MBC; for MIC: Staphylococcus aureus, ATCC29213, 18 h, read-out: MIC
Procedure: as §1

[4] = tested on: Escherichia coli ATCC25922; assay: MIC/MBC, microdilution broth method; assay type: cell-based; conditions: for MBC: Escherichia coli ATCC25922, minimum concentration which kills 99.9% bacteria, NA = no activity at 1 mg/mL, read-out: MBC; for MIC: Escherichia coli, ATCC25922, 18 h, read-out: MIC
Procedure: as §1

[5] = tested on: Streptococcus suis CVCC3307; assay: MIC/MBC, microdilution broth method; assay type: cell-based; conditions: for MBC: kills 99.9% bacteria, NA = no activity at 1 mg/mL
Procedure: as §1

[6] = tested on: Salmonella typhimurium ATCC14028; assay: MIC/MBC, microdilution broth method; assay type: cell-based; conditions: Salmonella enterica; for MIC: 18 h, read-out: MIC; for MBC: Salmonella typhimurium ATCC14028, kills 99.9% bacteria, NA = no activity at 1 mg/mL, read-out: MBC
Procedure: as §1

[7] = tested on: Proteus vulgaris CVCC1971; assay: MIC/MBC, microdilution broth method; assay type: cell-based; conditions: for MBC: kills 99.9% bacteria, NA = no activity at 1 mg/mL
Procedure: as §1

[8] = tested on: Escherichia coli CVCC1450; assay: MIC/MBC, microdilution broth method; assay type: cell-based; conditions: for MBC: Escherichia coli CVCC1450, minimum concentration which kills 99.9% bacteria, NA = no activity at 1 mg/mL, read-out: MBC; for MIC: Escherichia coli, CVCC1450, 18 h, read-out: MIC
Procedure: as §1

[9] = tested on: Klebsiella pneumoniae CAU202084; assay: MIC/MBC, microdilution broth method; assay type: cell-based; conditions: for MBC: kills 99.9% bacteria, NA = no activity at 1 mg/mL
Procedure: as §1

[10] = tested on: Bacillus cereus CAU 202020; assay: MIC/MBC, microdilution broth method; assay type: cell-based; conditions: for MIC: Bacillus cereus, CAU202020, 18 h, read-out: MIC; for MBC: CAU202020, Bacillus cereus CAU 202020 (MDR isolate), kills 99.9% bacteria, NA = no activity at 1 mg/mL, read-out: MBC
Procedure: as §1

[11] = tested on: Escherichia coli CAU 201919; assay: MIC/MBC, microdilution broth method; assay type: cell-based; conditions: for MBC: CAU201919, Escherichia coli CAU 201919 (MDR isolate), kills 99.9% bacteria, NA = no activity at 1 mg/mL, read-out: MBC; for MIC: Escherichia coli, CAU201919, 18 h, read-out: MIC
Procedure: as §1

MRSA ATCC33591 = assay: MIC/MBC, microdilution broth method; assay type: cell-based, S. aureus; conditions: for MBC: MRSA ATCC33591, kills 99.9% bacteria, NA = no activity at 1 mg/mL
Procedure: as §1

E. coli CAU201919 = assay: Murine model of mastitis induced by MDR E. coli; assay type: in vivo, mice; conditions: Z-d14CFR 25 μg or gentamicin 10 μg via milk duct at 3 h and 15 h, 27 h post-infection
Text: In this study, the therapeutic effects of Z-d14CFR on MDR bacterial infection in vivo was verified by a murine mastitis model. E. coli CAU201919 was used to establish the mastitis model because it is highly pathogenic compared with other bacteria and is resistant to various antibiotics, such as ampicillin, amoxicillin and cefazolin. In brief, 45 Crl:CD1 female mice at 17–18 days of gestation were purchased from Beijing Vital River Laboratory Animal Technology Co., Ltd. (Beijing, China) and kept in the Laboratory Animal Center of China Agricultural University (Beijing, China). At 72 h post-partum, the mice were randomly divided into 5 groups (n = 9 per group) and the offspring were removed 3 h before of administration. The mice were anesthetized by Zoletil 50 (55 mg/kg body weight, WK001, Virbac, France) and held under the stereoscope in a supine position. Mice in the saline group and Z-d14CFR group were intraductal inoculated with 50 μL normal saline or 50 μL Z-d14CFR (25 μg each teat) alone to the milk duct. Mice in other groups were inoculated with 25 μL (1 × 10^5 CFU) E. coli CAU201919 suspension to the milk duct, and after 3 h of E. coli challenged, mice were treated with 25 μL saline, Z-d14CFR (25 μg) or gentamicin (10 μg), respectively, via milk duct injection. Then the mice were given the same treatment after 15 h of E. coli challenged. After 27 h of E. coli challenged, all mice were euthanized. The mammary gland tissues were collected to carry out bacterial count, histopathological examination and inflammatory factors examination.

S. aureus ATCC29213 = assay: Time-killing assay; assay type: cell-based; conditions: 2 MIC, CFU counts at 0-24 h; for time to kill bacteria in the logarithmic phase: 1 × 10^6 CFU/mL
Procedure: (§2) E. coli ATCC25922 and S. aureus ATCC29213 in the mid-logarithmic phase were diluted into 1 × 10^6 CFU/mL with 10 mM PBS, and incubated with 10 μL Z-d14CFR in a final concentration of 2 MIC. At 0, 4, 8, 12, 16, 20, and 24 h, the mixture was serial diluted and spread onto LB agar plates. After 16 h of cultivation, the CFU number of bacteria was counted to evaluate the ability of peptide to kill bacteria. The bacteria treated with 10 mM PBS as a negative control, and meanwhile incubated with 2 MIC gentamicin or polymyxin B as a positive control.

E. coli ATCC25922 = assay: Time-killing assay; assay type: cell-based; conditions: 2 MIC, CFU counts at 0-24 h; for time to kill bacteria in the logarithmic phase: 1 × 10^6 CFU/mL
Procedure: as §2

[12] = Retention time of peptide in HPLC (hydrophobicity); assay type: physicochemical; conditions: used as measure of hydrophobicity (order Z-d14CR > Z-d14CF > Z-d13 > Z-d14CFR > Z-d14C); column and gradient not given
[13] = Streptococcus suis CVCC3307, read-out: MBC
[14] = Streptococcus suis, CVCC3307, 18 h, read-out: MIC
[15] = Proteus vulgaris CVCC1971, read-out: MBC
[16] = Proteus vulgaris, CVCC1971, 18 h, read-out: MIC
[17] = Klebsiella pneumoniae CAU202084 (MDR isolate), read-out: MBC
[18] = Klebsiella pneumoniae, CAU202084, 18 h, read-out: MIC
[19] = Staphylococcus aureus, 18 h, read-out: MIC
[20] = Staphylococcus aureus, read-out: MBC

CC1(C)S[C@@H]2[C@H](NC(=O)[C@H](N)c3ccccc3)C(=O)N2[C@H]1C(=O)O [Ampicillin, reference compound]
MBC [1]: > 1000 µg/mL
MIC [1]: > 1000 µg/mL
MBC [2]: > 1000 µg/mL
MIC [2]: > 1000 µg/mL
MBC [3]: 4 µg/mL (≈ 11.4 µM)
MIC [3]: 2 µg/mL (≈ 5.72 µM)
MBC [4]: 16 µg/mL (≈ 45.8 µM)
MIC [4]: 4 µg/mL (≈ 11.4 µM)
MBC [5, 13]: 2 µg/mL (≈ 5.72 µM)
MIC [5, 14]: 1 µg/mL (≈ 2.86 µM)
MIC [6]: 4 µg/mL (≈ 11.4 µM)
MBC [6]: 8 µg/mL (≈ 22.9 µM)
MBC [7, 15]: > 1000 µg/mL
MIC [7, 16]: > 1000 µg/mL
MBC [8]: 32 µg/mL (≈ 91.6 µM)
MIC [8]: 8 µg/mL (≈ 22.9 µM)
MBC [9, 17]: > 1000 µg/mL
MIC [9, 18]: > 1000 µg/mL
MIC [10]: > 1000 µg/mL
MBC [10]: > 1000 µg/mL
MBC [11]: > 1000 µg/mL
MIC [11]: > 1000 µg/mL
MIC (MRSA ATCC33591; [19]): > 1000 µg/mL
MBC (MRSA ATCC33591; [20]): > 1000 µg/mL

CNC(C)C1CCC(N)C(OC2C(N)CC(N)C(OC3OCC(C)(O)C(NC)C3O)C2O)O1 (stereo not drawn) [Gentamicin, reference compound]
bacterial burden in the mammary gland (E. coli CAU201919; Crl:CD1 mice, 1 × 10^5 CFU E. coli CAU201919 intraductal, infected only about 3.71 × 10^9, p < 0.001): 3.13 × 10^8 CFU/g tissue
histopathologic damage of the mammary gland (acinar wall thickening, neutrophils infiltration) (E. coli CAU201919): obviously ameliorated
increase in IL-1β mRNA expression in the mammary gland (E. coli CAU201919; p < 0.001): attenuated
increase in TNF-α mRNA expression in the mammary gland (E. coli CAU201919; p < 0.001): attenuated
time to kill bacteria in the logarithmic phase (S. aureus ATCC29213): ≤ 8 h
time to kill bacteria in the plateau (S. aureus ATCC29213): ≤ 12 h
time to kill bacteria in the logarithmic phase (E. coli ATCC25922): ≤ 8 h
time to kill bacteria in the plateau (E. coli ATCC25922): ≤ 12 h
MBC [1]: 80 µg/mL (≈ 168 µM)
MIC [1]: 80 µg/mL (≈ 168 µM)
MBC [2]: 4 µg/mL (≈ 8.38 µM)
MIC [2]: 4 µg/mL (≈ 8.38 µM)
MBC [3]: 4 µg/mL (≈ 8.38 µM)
MIC [3]: 4 µg/mL (≈ 8.38 µM)
MBC [4]: 4 µg/mL (≈ 8.38 µM)
MIC [4]: 4 µg/mL (≈ 8.38 µM)
MBC [5, 13]: 8 µg/mL (≈ 16.8 µM)
MIC [5, 14]: 4 µg/mL (≈ 8.38 µM)
MIC [6]: 2 µg/mL (≈ 4.19 µM)
MBC [6]: 2 µg/mL (≈ 4.19 µM)
MBC [7, 15]: 4 µg/mL (≈ 8.38 µM)
MIC [7, 16]: 1 µg/mL (≈ 2.09 µM)
MBC [8]: 4 µg/mL (≈ 8.38 µM)
MIC [8]: 2 µg/mL (≈ 4.19 µM)
MBC [9, 17]: 4 µg/mL (≈ 8.38 µM)
MIC [9, 18]: 1 µg/mL (≈ 2.09 µM)
MIC [10]: 4 µg/mL (≈ 8.38 µM)
MBC [10]: 32 µg/mL (≈ 67 µM)
MBC [11]: 40 µg/mL (≈ 83.8 µM)
MIC [11]: 40 µg/mL (≈ 83.8 µM)
MIC (MRSA ATCC33591; [19]): 4 µg/mL (≈ 8.38 µM)
MBC (MRSA ATCC33591; [20]): 16 µg/mL (≈ 33.5 µM)

CC(C)[C@@H]1NC(=O)[C@@H]2CSSC[C@H](NC(=O)[C@H](Cc3ccc(O)cc3)NC(=O)[C@@H](NC(=O)CNC(=O)[C@@H](N)CCCNC(=N)N)CSSC[C@@H](C(=O)N[C@@H](CCCNC(=N)N)C(N)=O)NC1=O)C(=O)N[C@@H](CC(N)=O)C(=O)N[C@@H](CO)C(=O)N[C@@H](CCCCN)C(=O)N[C@@H](CO)C(=O)N[C@@H](Cc1ccccc1)C(=O)N2 [Z-d14CF] (H-RGCYCNSKSFCVCR-NH2; disulfide 3-13, 5-11; N-terminus assumed)
RT, retention time of peptide in HPLC [12]: 9.538 min
MIC ([5]; Streptococcus suis CVCC3307, 1 × 10^6 CFU/mL, 18 h at 37 °C, NA = no antimicrobial activity at 1 mg/mL): NA (NA) (No antimicrobial activity at 1 mg/mL)
MBC ([5]; Streptococcus suis CVCC3307): NA (NA) (No antimicrobial activity at 1 mg/mL)
MIC ([7]; Proteus vulgaris CVCC1971, 1 × 10^6 CFU/mL, 18 h at 37 °C, NA = no antimicrobial activity at 1 mg/mL): NA (NA) (No antimicrobial activity at 1 mg/mL)
MBC ([7]; Proteus vulgaris CVCC1971): NA (NA) (No antimicrobial activity at 1 mg/mL)
MIC ([9]; Klebsiella pneumoniae CAU202084 (MDR isolate), 1 × 10^6 CFU/mL, 18 h at 37 °C, NA = no antimicrobial activity at 1 mg/mL): NA (NA) (No antimicrobial activity at 1 mg/mL)
MBC ([9]; Klebsiella pneumoniae CAU202084 (MDR isolate)): NA (NA) (No antimicrobial activity at 1 mg/mL)
MIC (MRSA ATCC33591; MRSA (methicillin-resistant S. aureus) ATCC33591, 1 × 10^6 CFU/mL, 18 h at 37 °C, NA = no antimicrobial activity at 1 mg/mL): NA (NA) (No antimicrobial activity at 1 mg/mL)
MBC (MRSA ATCC33591): NA (NA) (No antimicrobial activity at 1 mg/mL)

polymyxin B
time to kill bacteria in the logarithmic phase (S. aureus ATCC29213): ≤ 4 h
time to kill bacteria in the plateau (S. aureus ATCC29213): ≤ 12 h
time to kill bacteria in the logarithmic phase (E. coli ATCC25922): ≤ 4 h
time to kill bacteria in the plateau (E. coli ATCC25922): ≤ 12 h
